Test [1] has as its target T1, Serotonin 3 (5-HT3) receptor (Rattus norvegicus, UniProt P35563+Q9JJ16).
T1 sequence (P35563 whole entry): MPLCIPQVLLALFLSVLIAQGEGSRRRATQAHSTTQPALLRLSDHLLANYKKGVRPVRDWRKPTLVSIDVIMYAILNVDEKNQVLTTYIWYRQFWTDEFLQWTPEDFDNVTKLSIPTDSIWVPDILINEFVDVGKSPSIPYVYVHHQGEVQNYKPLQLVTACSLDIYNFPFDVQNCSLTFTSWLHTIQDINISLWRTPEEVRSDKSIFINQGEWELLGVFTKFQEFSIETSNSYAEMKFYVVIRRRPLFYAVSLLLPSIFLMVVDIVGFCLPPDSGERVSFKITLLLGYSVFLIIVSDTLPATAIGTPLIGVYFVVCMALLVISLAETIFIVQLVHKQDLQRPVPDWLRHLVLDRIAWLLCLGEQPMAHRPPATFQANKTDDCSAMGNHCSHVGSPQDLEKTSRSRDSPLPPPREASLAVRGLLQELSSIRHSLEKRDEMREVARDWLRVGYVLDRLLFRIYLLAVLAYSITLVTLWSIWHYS
T1 sequence (Q9JJ16 whole entry): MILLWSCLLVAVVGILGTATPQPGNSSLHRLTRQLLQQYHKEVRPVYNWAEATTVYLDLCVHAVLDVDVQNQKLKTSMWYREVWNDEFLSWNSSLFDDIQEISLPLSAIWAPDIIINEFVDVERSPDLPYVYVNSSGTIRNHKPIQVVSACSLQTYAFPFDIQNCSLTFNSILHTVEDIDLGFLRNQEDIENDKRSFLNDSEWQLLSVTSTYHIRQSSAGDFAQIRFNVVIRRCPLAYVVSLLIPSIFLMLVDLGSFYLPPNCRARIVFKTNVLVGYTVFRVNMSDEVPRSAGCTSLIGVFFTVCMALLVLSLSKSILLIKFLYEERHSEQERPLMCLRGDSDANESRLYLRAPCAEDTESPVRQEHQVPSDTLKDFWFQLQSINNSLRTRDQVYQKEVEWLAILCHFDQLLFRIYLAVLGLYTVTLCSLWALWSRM
As to the kind of experiment: Binding affinity to 5-hydroxytryptamine 3 receptor using [3H]quipazine as radioligand in rat cortex.

The target in test [2] is T1, Serotonin 3 (5-HT3) receptor. As to the kind of experiment: Binding affinity to 5-hydroxytryptamine 3 receptor using [3H]GR-65630 as radioligand in rat cortex.
Test [3] addresses T2, Serotonin 3 receptor (5HT3) (Mus musculus) (UniProt Q9JHJ5+P23979). The test can be described thus: Binding affinity towards 5-hydroxytryptamine 3 receptor was determined by using [3H]-ICS 205-930 as radioligand in mouse N1E 115 cells. The test is classed as cell-based.
The target of test [4] is Serotonin 3 (5-HT3) receptor. The test can be described thus: (§1) Potency at neuronal 5-hydroxytryptamine 3 receptor in the rabbit heart. The format is protein-complex assay, Oryctolagus cuniculus.
The target of test [5] is Serotonin 3 (5-HT3) receptor. The test can be described thus: Potency at neuronal 5-hydroxytryptamine 3 receptors in the rabbit heart. The format is protein-complex assay, Oryctolagus cuniculus.
In test [6] the target is Serotonin 3 (5-HT3) receptor. As to the kind of experiment: Potency to 5-hydroxytryptamine 3 receptor using [3H]GR-65630 as radioligand in rat cortex.
For test [7], the target named is Serotonin 3 (5-HT3) receptor. The test is classed as protein-complex assay, Oryctolagus cuniculus.
The target in test [8] is Serotonin 3 (5-HT3) receptor. As to the kind of experiment: Potency to 5-hydroxytryptamine 3 receptor entirely in guinea pig ileum. The test is classed as tissue-based, Cavia porcellus.
Test [9] has as its target T2, Serotonin 3 receptor (5HT3) (Mus musculus). The description is as §1. The test is classed as protein assay.

Molecules are shown by their SMILES.

T2 sequence (P23979 whole entry, looked up): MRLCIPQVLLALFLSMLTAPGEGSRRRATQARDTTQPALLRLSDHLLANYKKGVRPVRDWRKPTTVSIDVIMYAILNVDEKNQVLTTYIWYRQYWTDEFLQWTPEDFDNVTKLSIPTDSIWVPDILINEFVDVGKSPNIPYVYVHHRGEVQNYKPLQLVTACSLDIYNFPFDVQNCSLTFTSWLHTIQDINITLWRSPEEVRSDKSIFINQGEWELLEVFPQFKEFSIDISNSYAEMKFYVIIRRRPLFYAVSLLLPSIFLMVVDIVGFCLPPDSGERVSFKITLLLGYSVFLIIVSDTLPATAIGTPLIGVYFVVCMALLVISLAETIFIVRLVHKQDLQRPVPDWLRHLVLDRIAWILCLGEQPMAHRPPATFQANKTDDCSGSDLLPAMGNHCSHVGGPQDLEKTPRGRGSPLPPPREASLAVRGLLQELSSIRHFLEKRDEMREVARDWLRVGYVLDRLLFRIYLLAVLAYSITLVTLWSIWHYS
T2 sequence (Q9JHJ5 whole entry, looked up): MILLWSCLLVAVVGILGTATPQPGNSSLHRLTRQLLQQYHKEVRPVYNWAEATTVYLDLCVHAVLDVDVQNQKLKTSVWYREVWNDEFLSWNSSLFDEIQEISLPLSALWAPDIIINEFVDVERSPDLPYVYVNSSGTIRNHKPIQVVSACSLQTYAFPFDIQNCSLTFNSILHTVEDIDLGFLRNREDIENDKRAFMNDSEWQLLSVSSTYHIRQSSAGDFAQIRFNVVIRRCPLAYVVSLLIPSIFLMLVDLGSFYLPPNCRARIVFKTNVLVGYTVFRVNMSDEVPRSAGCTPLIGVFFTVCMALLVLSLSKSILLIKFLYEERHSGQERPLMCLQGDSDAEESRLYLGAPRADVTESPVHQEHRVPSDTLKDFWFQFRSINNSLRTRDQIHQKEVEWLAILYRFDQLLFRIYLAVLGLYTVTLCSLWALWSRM

Turning to `c1ccc2nc(N3CCNCC3)ccc2c1` [QUIPAZINE], the Ki was 1 nM in test [1] and 1.41 nM in test [2]. The compound further gave a pKD in [3] of 8.69. Regarding `Cc1cc(C)cc(C(=O)OC2CC3CCC(C2)N3C)c1` (stereo not given), the pA2 in [4] is reported as 9. In [5], `C[N+]1(C)CCC(C(=O)c2c[nH]c3ccccc23)CC1.[I-]` had a pA2 of 9.2.

On to `O=C(OC1CC2CCC(C1)N2)c1c[nH]c2ccccc12` (stereo not given), for which the pKD in test [3] is 9.14.

In test [5], `CN1CC(=O)C2CCC(OC(=O)c3c[nH]c4ccccc34)C1C2` (stereo not given) displayed a pA2 of 9.8. The compound `COC(=O)[C@@H]1C2CCC(C[C@@H]1OC(=O)c1ccccc1)N2` (stereo not given in full) came in with a pA2 in [4] of 7.7. In turn, `O=C(c1c[nH]c2ccccc12)C1CCNCC1` returned a pA2 in [5] of 8.3. With `Cc1[nH]cnc1CCC(=O)c1cn(C)c2ccccc12`, the “Log Ki” value in [6] is -8.79. In test [4], `CN1[C@@H]2CC[C@H]1C[C@H](OC(=O)c1ccccc1)C2` showed a pA2 of 7.2. The compound `CCN(CC)CCNC(=O)c1cc(Cl)c(N)cc1OC` [METOCLOPRAMIDE] had a pA2 in test [5] of 7.3. Also, the figures for the Ki in test [1] and in test [2] were 229 nM and 200 nM, respectively. For the same compound, in test [3], the pKD was 6.65.

For the compound `Cc1nccn1CC1CCc2c(c3ccccc3n2C)C1=O` (stereo not given), the pKD in test [3] was determined as 7.9. As to `CN1[C@@H]2CC[C@H]1C[C@@H](OC(=O)c1c[nH]c3ccccc13)C2` [TROPISETRON], the Ki in [1] is 0.603 nM; in test [2], 3.16 nM. The pKD in [3] stood at 9.09. In [2], `CN1[C@@H]2CC[C@H]1C[C@@H](OC(=O)c1cc(Cl)cc(Cl)c1)C2` [BEMESETRON] had a Ki of 55 nM. The pKD in [3] was 8.21.

On to `COc1cc(N)c(Cl)cc1C(=O)N[C@H]1CCN2CCC[C@@H]1C2`, for which the pA2 is given as 8.9 in [5], 8.5 in [7] and 7.6 in test [8]. In test [9], `CN1C2CCC1CC(OC(=O)c1cn(C)c3ccc(F)cc13)C2` (stereo not given) yielded a pKD of 9.8.

A word on the Ki: it is the equilibrium dissociation constant of an inhibitor or competing ligand from its target. Usually pKD stands for the KD on a negative log10 scale, so that one unit is a factor of ten. Read a high pKD as a low KD. One may read the pA2 as a measure of antagonist potency on a negative log scale. Low readings indicate lower antagonist potency, high ones higher antagonist potency.

(Values after ChEMBL document CHEMBL1124788, “Conformation-activity relationship study of 5-HT3 receptor antagonists and a definition of a model for this receptor site” (J Med Chem, 1990).)
